Results published in article PMC12751025, “α‑Aminoboronic Acid Moieties in Boro Dipeptides Modulate Proteasome Subunit Selectivity and Provide Access to Compounds with Potent Anticancer and Anti-Inflammatory Activity” (Journal of Medicinal Chemistry, 2025).

What was measured:
Type in all cases: in vitro ADME
[1] = Gastrointestinal tract parallel artificial membrane permeability (PAMPA) assay; settings: GIT PAMPA; for Permeability, Log10 [cm/s]: pH 7.4, 50 μM, 4 hours; for Papp at 4 h, 50 μM: pH 7.4, read-out: Pe
Protocol: Gastrointestinal tract parallel artificial membrane permeability (PAMPA) assay All steps of the PAMPA were carried out according to the pION Inc. PAMPA Explorer™ Manual. The main principle of the assay is the incubation of the compound in the donor chamber (a well in the Donor Plate) with an aqueous buffer, which is separated from the acceptor chamber (a well in the Acceptor Plate) with another buffer by a phospholipid or hydrocarbon membrane fixed on a filter support. After the test, concentrations in the corresponding donor and acceptor wells are measured, and permeability is calculated. The GIT model was simulated using the GIT-0 phospholipid mix.
(§1) Verapamil, quinidine (high permeability), and ranitidine (low permeability) were used as reference […]
All compounds were tested in triplicate. Prisma HT buffer (pH 7.4) containing 50 μM test compounds (0.5% DMSO) was added to the Donor Plate wells. Acceptor Sink Buffer was added to each well of the Acceptor Plate. Incubation was done at room temperature for 4 hours without stirring. After […]
incubation, aliquots from both plates were transferred to optic UV-Vis plates, and optic plates were read on a microplate reader in absorbance mode in the range of 230-550 nm with a 4 nm step. Then, the apparent permeability coefficient was calculated. […]
In order to define non-specific loss of the compound during this assay, standard solution was created by mixing an aliquot of spiked plasma with blank buffer without dialysis. Two aliquots of the standard solution were incubated with shaking (250 rpm) at 37 °C, 5% CO2, and a saturating humidity (~95%) for 5 h (recovery samples). The other two aliquots were immediately diluted with acetonitrile and stored at 4 °C until LC-MS/MS analysis (stability samples). All samples were diluted 5-fold with 90% acetonitrile with internal standard with subsequent plasma proteins sedimentation by centrifuging at 6000 rpm for 5 min. Supernatants were analyzed using HPLC system coupled with tandem mass spectrometer. Verapamil was used as a reference compound to control proper assay […]
Bortezomib and its analogs are known to exist as the free boronic acid as well as dimeric and trimeric boronic anhydrides. These forms interconvert rapidly in solution and are indistinguishable by routine […]
activity of such compounds. On UHPLC, the interconverting boronic species were not chromatographically resolved; however, diastereomers were at least partially separated, yielding two distinct chromatographic signals with identical mass spectra. By contrast, the bortezomib reference standard produced a single chromatographic signal, consistent with its pure enantiomeric form (see

[2] = Metabolic stability in human liver microsomes; settings: for half-life at 2 μM / k el at 2 μM / microsomal CLint at 2 μM: pH 7.4, human liver microsomes, 40 min
Protocol: Metabolic stability in human liver microsomes
Microsomal incubations were carried out in 96-well plates in 5 aliquots of 30 μL each (one for each time point). Liver microsomal incubation medium comprised of phosphate buffer (100 mM, pH 7.4), MgCl2 (3.3 mM), NADPН (3 mM), glucose-6-phosphate (5.3 mM), glucose-6-phosphate dehydrogenase (0.67 units/ml) with 0.42 mg of liver microsomal protein per mL. In the control reactions, the NADPH-cofactor system was substituted with phosphate buffer. Test compounds (2 μM, final acetonitrile concentration 1.6 %) were incubated with microsomes at 37 °C, shaking at 100 rpm. Five time points over 40 min were analyzed. The reactions were stopped by adding 4 volumes of acetonitrile with internal standard to incubation aliquots, followed by protein sedimentation by centrifuging at 5500 rpm for 5 min. Each reaction was performed in duplicates. Supernatants were analyzed using the HPLC system coupled with a tandem mass spectrometer. […]

[3] = Caco-2 permeability; settings: human; for Papp A→B at 90 min, 10 μM / Papp B→A at 90 min, 10 μM: pH 7.4, Caco-2, 10 μM; for Papp A→B at 90 min, 10 μM: apical-to-basolateral; for Papp B→A at 90 min, 10 μM: basolateral-to-apical
Protocol: Caco-2 cells were cultured in 75 cm2 flasks to 80-90% confluence in a humidified atmosphere at 37 °C and 5% CO2. Cells were detached with Trypsin/EDTA solution and resuspended in the complete medium containing DMEM high glucose (4500 mg/L) with L-glutamine (4 mM) supplemented with 10% […]
heat-inactivated Fetal Bovine Serum, 1% non-essential amino acids, and 730 nM puromycin and seeded at a density 5 × 10^5 cells in 75 cm2 flask. After 5 days, cells were trypsinized and resuspended in the complete medium to a final concentration of 600 × 10^3 cells/mL. 400 μL of the cell suspension was added to each well of the HTS 24-Multiwell Insert System and 25 mL of prewarmed complete medium was added to the feeder tray. Caco-2 cells were incubated in Multiwell Insert System for 6-10 days before the transport experiments. The medium in the filter plate and feeder tray was refreshed every other day. The 24-well insert plate was removed from its feeder plate and placed in a new sterile 24-well transport analysis plate. The inserts were washed with PBS after medium aspiration. Ketoprofen, atenolol, and digoxin were used as reference compounds.
To determine the rate of compounds transport in apical (A)-to-basolateral (B) direction, 300 μL of the test compound dissolved in transport buffer (Hanks’ BSS (9.5 g/L) and NaHCO3 (0.35 g/L) with MgSO4 to final concentration 0.81 mM, CaCl2 to final concentration 1.26 mM, HEPES to final concentration 25 mM, pH adjusted to 7.4) was added into the filter wells; 1000 μL of transport buffer was added to transport analysis plate wells. To determine transport rates in the basolateral (B)-to-apical (A) direction, 1000 μL of the test compound solutions was added into the wells of the transport analysis plate, the wells in the filter plate were filled with 300 μL of buffer. The final amount of reference and test compounds was 10 μM. The plates were incubated for 90 min at 37 °C under continuous shaking at 100 rpm. 75 μL aliquots were taken from the donor and receiver compartments for LC-MS/MS analysis. All samples were mixed with 2 volumes of acetonitrile followed by protein sedimentation by centrifuging at 10000 rpm for 10 min. Supernatants were analyzed using the HPLC system coupled with a tandem mass spectrometer. […]
The GIT model was simulated using the GIT-0 phospholipid mix.
as §1
All compounds were tested in triplicate. Prisma HT buffer (pH 7.4) containing 50 μM test compounds (0.5% DMSO) was added to the Donor Plate wells. Acceptor Sink Buffer was added to each well of the Acceptor Plate. Incubation was done at room temperature for 4 hours without stirring. After

Structure (SMILES) | Pe [1] [×10⁻⁶ cm/s] | Permeability, Log10 [cm/s] [1] | Papp at 4 h, 50 μM [1] [×10⁻⁶ cm/s] | microsomal stability ([2]; compared with bortezomib) | half-life at 2 μM [2] [min] | k el at 2 μM [2] [s⁻¹] | microsomal CLint at 2 μM [2] [µL/min/mg] | efflux ratio at 90 min, 10 μM ([3]; Caco-2, pH 7.4, quotient of Papp(BA) to Papp(AB)) | Papp A→B at 90 min, 10 μM [3] [×10⁻⁶ cm/s] | Papp B→A at 90 min, 10 μM [3] [×10⁻⁶ cm/s]
O=C(N[C@@H](Cc1ccccc1)C(=O)N[C@H](B(O)O)C1CCCC1)c1cnccn1 [5l, ((R)-Cyclopentyl((S)-3-phenyl-2-(pyrazine-2-carboxamido)propanamido)methyl)boronic Acid] | 15.8 | -4.8 ± 0.06 Log10 [cm/s] | 15.8 | higher microsomal stability | 39.4 | 0.0003 | 42 | 8.4 | 2 ± 0.2 | 17.1 ± 1
CC(C)C[C@H](NC(=O)[C@H](Cc1ccccc1)NC(=O)c1cnccn1)B(O)O [bortezomib, reference compound] | 15.8 | -4.8 ± 0.02 Log10 [cm/s] | 15.8 |  | 34.5 | 0.000333 | 48 |  | 2.8 ± 0.1 | 20.7 ± 0.1
